Measurements: patent US20220257552A1, “METHODS OF PRESCREENING AND TREATING BREAST CANCERS WITH SELECTIVE ANDROGEN RECEPTOR MODULATORS” (priority 2021, published 2022)

What was measured:
BR-0001 tumors = test: Microarray and AR ChIP-Seq of BR-0001 tumors; assay type: in vivo, mice
Description: Chromatin Immunoprecipitation Assay (ChIP). Proteins were cross-linked by incubation with 1% formaldehyde (final concentration) at 37° C. for 10 min. Tumors were homogenized using a probe hand-held homogenizer. The cells were washed with 1×PBS twice, scraped in 1 mL of PBS containing protease inhibitors ([[…] each of aprotinin, leupeptin, antipain, benzamidine HCl, and pepstatin/mL], 0.2 mM phenylmethylsulfonyl fluoride, and 1 mM sodium vanadate), pelleted, and resuspended in SDS lysis buffer (1% SDS, 10 mM EDTA, 50 mM Tris-HCl [pH 8.1]).
After lysis on ice for 10 min, the cell extract was sonicated (Branson sonifier 250) in a cold room eight times for 10 s each at constant duty cycle, with an output of 3 and with incubation on ice after every sonication. The debris was pelleted at 13,000 rpm for 10 min at 4° C., and the supernatant was diluted 10-fold with ChIP dilution buffer (0.01% SDS, 1.1% Triton X-100, 1.2 mM EDTA, 16.7 mM Tris HCl [pH 8.1], 167 mM NaCl). The proteins were precleared with 50 μL of 1:1 protein A-Sepharose beads in TE. […]
In the gene expression study described above, RNA was isolated from the BR-0001 TNBC tumors and the expression of genes in the entire genome was measured by microarray (Affymetrix, ST2.0 array). […]

[1] = Phase 3 trials in non-small cell lung cancer (muscle wasting); assay type: in vivo, human; conditions: 3 mg daily
Text: These include: 1. Protocol G100401, a Phase 1 single ascending dose study in 96 healthy, young, male volunteers; 2. Protocol G100402, a Phase 1 multiple ascending dose study in 50 healthy, young, male volunteers, and 23 elderly male volunteers with truncal obesity; 3. Protocol G100503, a Phase 1 single dose pharmacokinetic study to assess the effect of a dosage regimen that simulates a sustained release formulation to an immediate release formulation in 18 healthy, young male volunteers and 18 postmenopausal women; 4. Protocol G100506, a Phase 1 single dose pharmacokinetic study to assess the relative bioavailability of a 3 mg hard shell capsule formulation to be used during continued clinical development and to assess the effect of food on the pharmacokinetics of the 3 mg softgel formulation in 27 healthy, young, male volunteers; 5. Protocol 006, a Phase 1 single dose and multiple dose pharmacokinetic study in 24 postmenopausal, Japanese women; 6. Protocol G200501, a Phase 2 study in 60 postmenopausal women and 60 elderly men to assess lean body mass and physical function; 7. Protocol 003, a Phase 1b study in 44 postmenopausal women; 8.

HCI-7 PDX = test: HCI-7 (HCI-007) patient-derived xenograft in NSG mice; assay type: in vivo
Description: HCI-007 tumor pieces (1 mm^3) were implanted surgically (one per mouse) under the skin on the flanks of NSG mice. Simultaneously, 17β-estradiol pellet (Innovative Research of America) was implanted surgically under the skin of each mouse. Tumors were allowed to grow and reach approximately 100 mm^3 volume (1*W*W*0.526). […] Tumor volume was measured weekly and represented as % change in tumor volume (FIG. 32). Mice were sacrificed and tumors stored for further analysis.
All animal protocols were approved by The University of Tennessee Health Science Center (UTHSC) Institutional Animal Care and Use Research Committee. Xenograft experiments were performed as previously published (Narayanan et al. (2014) PLoS One 9, e103202). Briefly, 3 million MCF-7 cells were suspended in 0.05 ml MEM+10% FBS and 0.05 ml Matrigel/nude mouse and were injected subcutaneously. Once the tumor size reached 100-200 mm^3, the animals were randomized and treated orally with the indicated drugs formulated in DMSO:PEG-300 (15:85). HCI-7, HCI-9, and HCI-13 PDXs were gifts kindly donated by Dr. Alana Welm (Huntsman Cancer Institute, Salt Lake City, Utah). HCI PDX tumor fragments (1 mm^3) were surgically implanted under the mammary fat pad in female NOD SCID Gamma (NSG) mice. Tumor volume was measured twice weekly for MCF-7 xenograft and once or twice weekly for HCI PDXs. At the end of the study, animals were sacrificed and tumors were excised, weighed, and stored for various analyses.
From the several PDXs available, three AR-positive PDXs were identified, based on gene expression profile. […] The enzalutamide dose was selected based on previous published experiments (Park et al. (2016) Cancer Invest 34, 517-520; Pollock et al. (2016) Nat Chem Biol 12, 795-801) as well as from internal experiments conducted in prostate cancer xenografts and in Hershberger studies.

ER-β = target: T1, ER-β (Rattus norvegicus, UniProt Q62986); test: ER-β transactivation in HEK-293 cells; assay type: cell-based
T1 construct: expressed in transfected cells
Description: Rat GR, MR, PR, ER-α and ER-β were individually cloned into a pCR3.1 vector backbone. Sequencing was performed to verify the absence of any mutations. HEK-293 cells were plated at 90,000 cells per well of a 24 well plate in Dulbecco's Minimal Essential Media supplemented with 5% charcoal-stripped FBS. […] Luciferase assays were performed 48 h after transfection. Transcriptional activation values are represented as firefly luciferase normalized to renilla luciferase.

T1 sequence (Q62986 whole entry): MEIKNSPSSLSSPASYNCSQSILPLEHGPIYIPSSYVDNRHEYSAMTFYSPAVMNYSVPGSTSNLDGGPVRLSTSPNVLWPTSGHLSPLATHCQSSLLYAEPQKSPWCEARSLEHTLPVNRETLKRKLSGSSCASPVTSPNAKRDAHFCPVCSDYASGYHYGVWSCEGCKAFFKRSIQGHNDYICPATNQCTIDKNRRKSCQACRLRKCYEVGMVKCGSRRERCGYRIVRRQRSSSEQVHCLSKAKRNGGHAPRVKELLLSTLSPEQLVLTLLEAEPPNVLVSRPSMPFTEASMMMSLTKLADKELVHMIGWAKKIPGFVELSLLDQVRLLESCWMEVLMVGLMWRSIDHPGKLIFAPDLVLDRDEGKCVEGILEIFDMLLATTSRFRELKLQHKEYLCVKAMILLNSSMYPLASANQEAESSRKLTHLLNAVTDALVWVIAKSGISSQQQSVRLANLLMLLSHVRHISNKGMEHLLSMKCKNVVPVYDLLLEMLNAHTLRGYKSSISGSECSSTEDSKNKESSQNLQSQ

Compound | AR-occupied promoters with the gene up-regulated (BR-0001 tumors; mouse, in vivo) [%] | promoters to which AR was recruited (BR-0001 tumors; −5 kb to +1 kb) [promoters] | lean body mass [1] | tumor growth (HCI-7 PDX; 10 mg/kg Formula IX, 30 mg/kg enzalutamide, orally) | tumor weights at end of study (HCI-7 PDX; 10 mg/kg orally) | tumor growth (% change in tumor volume) (HCI-7 PDX; Formula IX 10 mg/kg, enzalutamide 20 mg/kg, orally, vs vehicle) | 17β-estradiol-induced ER-β activity, antagonist mode (ER-β; co-incubation) | ERβ-mediated transactivation, agonist mode (ER-β; highest tested concentration 1 μM)
C[C@](O)(COc1ccc(C#N)cc1)C(=O)Nc1ccc(C#N)c(C(F)(F)F)c1 [Formula IX, (S)—N-(4-Cyano-3-(trifluoromethyl)phenyl)-3-(4-cyanophenoxy)-2-hydroxy-2-methylpropanamide] | 20 | 176 | increased | inhibited significantly | significantly smaller | grew slowly | – | –
C[C@](O)(COc1ccc(C#N)cc1)C(=O)Nc1ccc(C#N)c(Cl)c1 [Formula VIII, (S)—N-(3-chloro-4-cyanophenyl)-3-(4-cyanophenoxy)-2-hydroxy-2-methylpropanamide] | – | – | – | – | – | – | failed to alter | failed to activate
